Broadly, the IC50 is the concentration needed to halve the response being measured. A higher IC50 goes with weaker potency in that assay. Broadly, the MFC is the lowest tested concentration that kills the fungus rather than only halting it. High values mean weaker fungicidal potency, low ones greater fungicidal potency.

One assay concerns the target Beta-1,3-glucan synthase (Candida albicans, UniProt O13428). Description: Tested for inhibition of Beta-1,3-glucan synthase using a crude membrane of Candida albicans (MY 1208).
The subject of another assay is Candida parapsilosis. Description: In vitro Fungicidal activity (MFC) against Candida parapsilosis (MY 1010). Type of assay: functional. To be noted: Lodderomyces parapsilosis.
Assay [1] can be described thus: In vivo anti-Candida activity was determined in a mouse model of disseminated candidiasis (TOKA). Type of assay: functional.
The next assay relates to Candida albicans. Description: In vitro Fungicidal activity (MFC) against Candida albicans (MY 1055). Type of assay: functional.

Each structure is given as a SMILES string. ≈ marks a conversion by molar mass, not a printed value. Numbered stars: 1 amine (or outer) side, 2 acyl side, 3 side chain; on linkers, the order of the positions; unused ones are H or OH. Bridge positions count the residues as written; N and C are the ends. Square brackets hold non-standard residues; d marks the D form. Peptide text beside a SMILES is read from it. * marks the point of attachment. Orn(4R-OH,5R-OH) = O=C([C@H](C[C@@H](O)[C@@H](O)N[*:3])N[*:1])[*:2]; hTyr(3S-OH,4S-OH) = N[C@H](C(=O)O)[C@H](O)[C@@H](O)c1ccc(O)cc1; X8 = O=C(O)CCCCCNC(=O)C[C@@H](O)[C@H](N[*:1])C(=O)[*:2]; Orn(4R-OH) = O=C([C@H](C[C@@H](O)CN[*:3])N[*:1])[*:2]; X10 = N#CCN(CC#N)CC[C@@H](O)[C@H](N[*:1])C(=O)[*:2]; hTyr(3R-OH) = N[C@H](C(=O)O)[C@H](O)Cc1ccc(O)cc1; X11 = COC(=O)C[C@@H](O)[C@H](N[*:1])C(=O)[*:2]; X14 = NNC(=O)C[C@@H](O)[C@H](N[*:1])C(=O)[*:2]; X2 = O=C(O)C[C@@H](O)[C@H](N[*:1])C(=O)[*:2]; X7 = CN(C)CC[C@@H](O)[C@H](N[*:1])C(=O)[*:2]; Gln(3R-OH) = NC(=O)C[C@@H](O)[C@H](N)C(=O)O; X17 = O=C([C@@H](N[*:1])[C@H](O)CCO)[*:2]; X9 = N#CC[C@@H](O)[C@H](N[*:1])C(=O)[*:2]; Pro(3S-OH) = O=C(O)[C@H]1NCC[C@@H]1O; Hyp = O=C(O)[C@@H]1C[C@@H](O)CN1; X1 = CCC(C)CC(C)CCCCCCCCC(=O)*

Beta-1,3-glucan synthase, sequence (O13428 whole entry): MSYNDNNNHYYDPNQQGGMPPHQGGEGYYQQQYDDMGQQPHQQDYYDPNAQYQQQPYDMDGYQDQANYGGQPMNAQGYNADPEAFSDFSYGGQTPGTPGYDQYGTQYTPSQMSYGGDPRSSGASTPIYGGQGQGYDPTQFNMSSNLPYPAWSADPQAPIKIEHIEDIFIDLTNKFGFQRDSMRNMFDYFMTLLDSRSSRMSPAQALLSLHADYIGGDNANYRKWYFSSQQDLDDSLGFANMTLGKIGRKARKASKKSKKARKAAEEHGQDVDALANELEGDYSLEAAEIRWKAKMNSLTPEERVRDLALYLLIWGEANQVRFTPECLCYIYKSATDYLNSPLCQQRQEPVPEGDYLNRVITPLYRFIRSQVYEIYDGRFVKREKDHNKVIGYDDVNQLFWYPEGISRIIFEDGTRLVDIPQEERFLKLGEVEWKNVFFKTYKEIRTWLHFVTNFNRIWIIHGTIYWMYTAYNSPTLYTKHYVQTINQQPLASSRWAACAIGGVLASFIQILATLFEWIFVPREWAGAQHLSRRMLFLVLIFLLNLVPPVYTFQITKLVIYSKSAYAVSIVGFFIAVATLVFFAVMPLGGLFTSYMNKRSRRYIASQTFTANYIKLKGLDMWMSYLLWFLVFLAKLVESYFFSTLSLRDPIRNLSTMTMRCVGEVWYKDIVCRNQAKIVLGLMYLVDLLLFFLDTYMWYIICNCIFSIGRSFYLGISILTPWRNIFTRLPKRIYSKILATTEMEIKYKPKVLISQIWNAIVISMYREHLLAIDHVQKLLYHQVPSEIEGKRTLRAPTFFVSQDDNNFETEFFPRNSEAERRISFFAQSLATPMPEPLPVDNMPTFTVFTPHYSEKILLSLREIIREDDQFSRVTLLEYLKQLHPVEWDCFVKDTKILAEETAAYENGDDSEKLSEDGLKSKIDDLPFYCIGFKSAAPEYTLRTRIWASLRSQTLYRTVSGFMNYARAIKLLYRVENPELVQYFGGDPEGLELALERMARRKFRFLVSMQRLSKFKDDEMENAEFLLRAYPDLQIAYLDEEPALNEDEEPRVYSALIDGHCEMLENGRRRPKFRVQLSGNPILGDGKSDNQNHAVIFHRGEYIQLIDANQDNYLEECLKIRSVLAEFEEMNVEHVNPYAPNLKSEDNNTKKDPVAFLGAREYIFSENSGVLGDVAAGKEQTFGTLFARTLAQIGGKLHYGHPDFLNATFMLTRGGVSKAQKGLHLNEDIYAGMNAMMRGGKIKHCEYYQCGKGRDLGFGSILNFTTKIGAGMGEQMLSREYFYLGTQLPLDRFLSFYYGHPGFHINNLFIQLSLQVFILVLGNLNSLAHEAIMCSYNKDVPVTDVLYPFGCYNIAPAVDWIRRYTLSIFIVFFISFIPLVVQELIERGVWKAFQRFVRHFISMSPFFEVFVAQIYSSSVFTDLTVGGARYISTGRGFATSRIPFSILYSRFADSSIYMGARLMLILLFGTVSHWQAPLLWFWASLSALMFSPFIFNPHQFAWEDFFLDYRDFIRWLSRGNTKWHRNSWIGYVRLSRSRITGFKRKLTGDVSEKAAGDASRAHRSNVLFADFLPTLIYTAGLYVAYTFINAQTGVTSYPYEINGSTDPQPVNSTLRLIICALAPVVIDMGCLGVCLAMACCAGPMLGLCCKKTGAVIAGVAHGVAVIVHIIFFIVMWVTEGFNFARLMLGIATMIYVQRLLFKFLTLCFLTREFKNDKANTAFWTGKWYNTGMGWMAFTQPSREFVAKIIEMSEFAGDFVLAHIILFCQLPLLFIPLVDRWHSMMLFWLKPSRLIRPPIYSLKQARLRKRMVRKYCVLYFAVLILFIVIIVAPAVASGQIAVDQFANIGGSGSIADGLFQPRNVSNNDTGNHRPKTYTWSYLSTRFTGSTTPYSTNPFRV

Regarding `CCC(C)CC(C)CCCCCCCCC(=O)N[C@H]1C[C@@H](O)[C@@H](O)NC(=O)[C@@H]2[C@@H](O)CCN2C(=O)[C@H]([C@H](O)CCN(C)C)NC(=O)[C@H]([C@H](O)[C@@H](O)c2ccc(O)cc2)NC(=O)[C@@H]2C[C@@H](O)CN2C(=O)[C@H]([C@@H](C)O)NC1=O` (stereo partly drawn) (X1-[Orn(4R-OH,5R-OH)]T[Hyp][hTyr(3S-OH,4S-OH)][X7][Pro(3S-OH)]; lactam 1-C), 5 nM corresponded to half-maximal inhibition at Beta-1,3-glucan synthase (IC50). In addition, the MFC against Candida parapsilosis was found to be 2 µg/mL (≈ 1.85 µM); against Candida albicans, 1 µg/mL (≈ 0.927 µM). In addition, the ED99.9 in assay [1] was determined as 1.5 mg/kg.
Taken in the same sequence, the figures for `CCC(C)CC(C)CCCCCCCCC(=O)N[C@H]1C[C@@H](O)[C@@H](O)NC(=O)[C@@H]2[C@@H](O)CCN2C(=O)[C@H]([C@H](O)CCN(CC#N)CC#N)NC(=O)[C@H]([C@H](O)[C@@H](O)c2ccc(O)cc2)NC(=O)[C@@H]2C[C@@H](O)CN2C(=O)[C@H]([C@@H](C)O)NC1=O` (stereo partly drawn) (X1-[Orn(4R-OH,5R-OH)]T[Hyp][hTyr(3S-OH,4S-OH)][X10][Pro(3S-OH)]; lactam 1-C) were greater than 200 nM, 8 µg/mL (≈ 7.08 µM), 4 µg/mL (≈ 3.54 µM) and greater than 1.5 mg/kg.
Taken in the same sequence, the figures for `CCC(C)CC(C)CCCCCCCCC(=O)N[C@H]1C[C@@H](O)CNC(=O)[C@@H]2[C@@H](O)CCN2C(=O)[C@H]([C@H](O)CC(=O)O)NC(=O)[C@H]([C@H](O)Cc2ccc(O)cc2)NC(=O)[C@@H]2C[C@@H](O)CN2C(=O)[C@H]([C@@H](C)O)NC1=O` (stereo partly drawn) (X1-[Orn(4R-OH)]T[Hyp][hTyr(3R-OH)][X2][Pro(3S-OH)]; lactam 1-C) were 400 nM, 8 µg/mL (≈ 7.74 µM), 0.25 µg/mL (≈ 0.242 µM) and greater than 6 mg/kg.
For `CCC(C)CC(C)CCCCCCCCC(=O)N[C@H]1C[C@@H](O)CNC(=O)[C@@H]2[C@@H](O)CCN2C(=O)[C@H]([C@H](O)CC(=O)OC)NC(=O)[C@H]([C@H](O)Cc2ccc(O)cc2)NC(=O)[C@@H]2C[C@@H](O)CN2C(=O)[C@H]([C@@H](C)O)NC1=O` (stereo partly drawn) (X1-[Orn(4R-OH)]T[Hyp][hTyr(3R-OH)][X11][Pro(3S-OH)]; lactam 1-C), the IC50 against Beta-1,3-glucan synthase was determined as 180 nM. In addition, the MFC with Candida parapsilosis was determined as 4 µg/mL (≈ 3.82 µM); in the assay with Candida albicans, 0.5 µg/mL (≈ 0.477 µM). This molecule also showed an ED99.9 in assay [1] greater than 6 mg/kg.
`CCC(C)CC(C)CCCCCCCCC(=O)N[C@H]1C[C@@H](O)[C@@H](O)NC(=O)[C@@H]2[C@@H](O)CCN2C(=O)[C@H]([C@H](O)CC(N)=O)NC(=O)[C@H]([C@H](O)[C@@H](O)c2ccc(O)cc2)NC(=O)[C@@H]2C[C@@H](O)CN2C(=O)[C@H]([C@@H](C)O)NC1=O` (stereo partly drawn) (X1-[Orn(4R-OH,5R-OH)]T[Hyp][hTyr(3S-OH,4S-OH)][Gln(3R-OH)][Pro(3S-OH)]; lactam 1-C): the MFC in the assay on Candida parapsilosis amounted to 1 µg/mL (≈ 0.939 µM); against Candida albicans, 0.25 µg/mL (≈ 0.235 µM). The same molecule yielded an ED99.9 in assay [1] of 6 mg/kg.
As to `CCC(C)CC(C)CCCCCCCCC(=O)N[C@H]1C[C@@H](O)CNC(=O)[C@@H]2[C@@H](O)CCN2C(=O)[C@H]([C@H](O)CCO)NC(=O)[C@H]([C@H](O)Cc2ccc(O)cc2)NC(=O)[C@@H]2C[C@@H](O)CN2C(=O)[C@H]([C@@H](C)O)NC1=O` (stereo partly drawn) (X1-[Orn(4R-OH)]T[Hyp][hTyr(3R-OH)][X17][Pro(3S-OH)]; lactam 1-C), half-maximal inhibition against Beta-1,3-glucan synthase (IC50) required 200 nM. For the same molecule, the values for the MFC against Candida parapsilosis and in the assay with Candida albicans were 8 µg/mL (≈ 7.84 µM) and 1 µg/mL (≈ 0.98 µM), respectively.
Taken in the same sequence, the figures for `CCC(C)CC(C)CCCCCCCCC(=O)N[C@H]1C[C@@H](O)CNC(=O)[C@@H]2[C@@H](O)CCN2C(=O)[C@H]([C@H](O)CC(=O)NN)NC(=O)[C@H]([C@H](O)Cc2ccc(O)cc2)NC(=O)[C@@H]2C[C@@H](O)CN2C(=O)[C@H]([C@@H](C)O)NC1=O` (stereo partly drawn) (X1-[Orn(4R-OH)]T[Hyp][hTyr(3R-OH)][X14][Pro(3S-OH)]; lactam 1-C) were 110 nM, 8 µg/mL (≈ 7.63 µM) and 4 µg/mL (≈ 3.82 µM).
Taken in the same sequence, the figures for `CCC(C)CC(C)CCCCCCCCC(=O)N[C@H]1C[C@@H](O)[C@@H](O)NC(=O)[C@@H]2[C@@H](O)CCN2C(=O)[C@H]([C@H](O)CC#N)NC(=O)[C@H]([C@H](O)[C@@H](O)c2ccc(O)cc2)NC(=O)[C@@H]2C[C@@H](O)CN2C(=O)[C@H]([C@@H](C)O)NC1=O` (stereo partly drawn) (X1-[Orn(4R-OH,5R-OH)]T[Hyp][hTyr(3S-OH,4S-OH)][X9][Pro(3S-OH)]; lactam 1-C) were 100 nM, 2 µg/mL (≈ 1.91 µM) and 2 µg/mL (≈ 1.91 µM).
Taken in the same sequence, the figures for `CCC(C)CC(C)CCCCCCCCC(=O)N[C@H]1C[C@@H](O)CNC(=O)[C@@H]2[C@@H](O)CCN2C(=O)[C@H]([C@H](O)CC(=O)NCCCCCC(=O)O)NC(=O)[C@H]([C@H](O)Cc2ccc(O)cc2)NC(=O)[C@@H]2C[C@@H](O)CN2C(=O)[C@H]([C@@H](C)O)NC1=O` (stereo partly drawn) (X1-[Orn(4R-OH)]T[Hyp][hTyr(3R-OH)][X8][Pro(3S-OH)]; lactam 1-C) were 900 nM, 64 µg/mL (≈ 55.8 µM) and 2 µg/mL (≈ 1.74 µM).

The values are drawn from ChEMBL document CHEMBL1128045, “Antifungal lipopeptides: Structure-activity relationships of 3-hydroxyglutamine-modified pneumocandin B0 derivatives” (Bioorg Med Chem Lett, 1995).
